Experiment: xn = mol fraction of the nth substance listed

CN1CCCN(C)C1=O + CCCCCCCCn1cc[n+](C)c1.[Cl-]
viscosity [mPa·s], 100 kPa
Settings | 288.15 K | 293.15 K | 298.15 K | 303.15 K | 308.15 K | 313.15 K | 318.15 K | 323.15 K | 328.15 K | 333.15 K
x2 = 0 | 4 | 3.51 | 3.11 | 2.78 | 2.5 | 2.266 | 2.064 | 1.891 | 1.737 | 1.595
x2 = 0.0999 | 15.3 | 12.48 | 9.9 | 8.46 | 7.27 | 6.32 | 5.53 | 4.88 | 4.35 | 3.9
x2 = 0.1998 | 52.2 | 40.6 | 31.8 | 25.6 | 21.04 | 17.5 | 14.79 | 12.66 | 10.9 | 9.46
x2 = 0.2997 | 176 | 128.8 | 95.4 | 78.6 | 61.1 | 48.4 | 39 | 31.9 | 26.4 | 21.86
x2 = 0.4004 | 412 | 287 | 224 | 163.5 | 122 | 93.5 | 72.9 | 57.5 | 46.8 | 38.3
x2 = 0.4993 | 1016 | 673 | 463 | 326 | 248 | 192 | 144.4 | 107.7 | 84.2 | 67.5
x2 = 0.5981 | 2302 | 1467 | 972 | 661 | 462 | 340 | 250 | 186 | 143.4 | 110.7
x2 = 0.6984 | – | – | 1797 | 1194 | 815 | 575 | 412 | 311 | 233 | 178
x2 = 0.7997 | – | – | – | 1924 | 1289 | 890 | 632 | 458 | 340 | 257

CCCCCCCCCCCCCC[P+](CCCCCC)(CCCCCC)CCCCCC.c1nnn[n-]1 + CCCCCC[n+]1ccn(C)c1.O=S(=O)([N-]S(=O)(=O)C(F)(F)F)C(F)(F)F
100 kPa
Settings | viscosity [mPa·s]
283.15 K, x2 = 0.102 | 1711
283.15 K, x2 = 0.299 | 1361
283.15 K, x2 = 0.6 | 662
283.15 K, x2 = 0.8 | 342
288.15 K, x2 = 0.102 | 1155
288.15 K, x2 = 0.201 | 1055
288.15 K, x2 = 0.8 | 247
288.15 K, x2 = 0.9 | 158
298.15 K, x2 = 0.102 | 567
298.15 K, x2 = 0.6 | 245
303.15 K, x2 = 0.201 | 382
303.15 K, x2 = 0.701 | 145
308.15 K, x2 = 0.201 | 286
308.15 K, x2 = 0.299 | 253
308.15 K, x2 = 0.8 | 86
308.15 K, x2 = 0.9 | 59
313.15 K, x2 = 0.6 | 112
318.15 K, x2 = 0.349 | 141

CCCCCC[n+]1ccn(C)c1.F[B-](F)(F)F + CCCCCC[n+]1ccn(C)c1.[Cl-]
101 kPa, x2 = 0
Settings | electrical conductivity [S/m] | viscosity [mPa·s]
303 K | 0.16 | –
303.15 K | – | 189
308 K | 0.205 | –
308.15 K | – | 145
313 K | 0.259 | –
313.15 K | – | 114
318 K | 0.322 | –
318.15 K | – | 90
323 K | 0.397 | –
323.15 K | – | 73
328 K | 0.481 | –
328.15 K | – | 60
333 K | 0.576 | –
333.15 K | – | 49

CN1CCCN(C)C1=O + CCCCCC[n+]1ccn(C)c1.[Cl-]
viscosity [mPa·s], 100 kPa
Settings | 288.15 K | 293.15 K | 298.15 K | 303.15 K | 308.15 K | 313.15 K | 318.15 K | 323.15 K | 328.15 K | 333.15 K
x2 = 0 | 4 | 3.51 | 3.11 | 2.78 | 2.5 | 2.266 | 2.064 | 1.891 | 1.737 | 1.595
x2 = 0.1011 | 9.78 | 8.21 | 6.99 | 6.01 | 5.22 | 4.59 | 4.06 | 3.63 | 3.25 | 2.94
x2 = 0.1987 | 29.2 | 23.3 | 18.82 | 15.64 | 13.14 | 10.05 | 8.62 | 7.47 | 6.53 | 5.75
x2 = 0.3083 | 77.7 | 59.1 | 45.8 | 36.3 | 29.2 | 23.9 | 19.81 | 16.38 | 13.92 | 12.29
x2 = 0.3981 | 184 | 133.6 | 99.3 | 75.6 | 63.8 | 50.5 | 40.6 | 33 | 27.5 | 23.11
x2 = 0.4957 | 412 | 283 | 215 | 157.4 | 117.8 | 90.1 | 70.2 | 55.6 | 44.6 | 36.3
x2 = 0.6008 | 897 | 600 | 418 | 296 | 215 | 158 | 121 | 93.6 | 73.9 | 58.6
x2 = 0.6983 | 2019 | 1294 | 856 | 583 | 408 | 294 | 215 | 163.7 | 124.9 | 96.8
x2 = 0.7961 | – | 2416 | 1565 | 1044 | 708 | 496 | 357 | 261 | 196 | 148.4

CCCCCC[n+]1ccn(C)c1.F[B-](F)(F)F + CCCCCO
101.33 kPa, x2 = 0.865
Settings | viscosity [mPa·s]
315 K | 5.31
315.35 K | 4.93
315.39 K | 4.9
315.5 K | 4.85
315.63 K | 4.78
315.79 K | 4.73
315.84 K | 4.71
315.86 K | 4.71
318.02 K | 4.19

CC(=O)[O-].CCCC[N+](CCCC)(CCCC)CCCC + CCCCN + O
303.15 K, 100 kPa
Settings | viscosity [mPa·s]
x2 = 0, x3 = 0.0291 | 680
x2 = 0.0965, x3 = 0.0347 | 390
x2 = 0.194, x3 = 0.0301 | 188
x2 = 0.3198, x3 = 0.031 | 78
x2 = 0.4873, x3 = 0.0253 | 28
x2 = 0.6575, x3 = 0.0186 | 16
x2 = 0.7882, x3 = 0.0148 | 11
x2 = 0.8893, x3 = 0.0119 | 9

CCC[NH3+].O=[N+]([O-])[O-] + CCCC[NH3+].O=[N+]([O-])[O-]
101 kPa, frequency 0.00293 MHz, x1 = 0.5
Settings | electrical conductivity [S/m]
293.15 K | 0.496
313.15 K | 1.02
323.15 K | 1.36

101 kPa, x1 = 0.5
Settings | viscosity [mPa·s]
293.15 K | 100.4
313.15 K | 45.4
323.15 K | 32.6
328.15 K | 28.1
343.15 K | 18.8

From the CheMixHub ionic liquid set
